Holding throughout (assay type): in vivo
Experiment [1] concerns Beet Armyworm (Spodoptera exigua, LAPHEG). As to the kind of experiment: Bioassays on Beet Armyworm (BAW), 128-well diet tray assay. Conditions: Spodoptera exigua. The gist of the method:
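Larvae at second instar are exposed on dried, compound-treated diet (50 μg/cm^2, delivered in 90:10 acetone-water) in eight replicate wells. After five to seven days at 25° C., 14:10 light-dark, percent mortality in each well is scored and the eight wells averaged.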

In experiment [2] the test system is Cabbage Looper (Trichoplusia ni, TRIPNI). As to the kind of experiment: Bioassays on Cabbage Looper (CL), 128-well diet tray assay. To be noted: Trichoplusia ni. The gist of the method: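 Diet tray, 2nd instar, 1–5 larvae/well; 50 μg/cm^2 compound surface-applied (acetone:water 90:10), dried; 8 wells/treatment; 25° C, 14:10 L:D, 5–7 d; % mortality, mean of 8 wells.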

Experiment [3] deals with Yellow Fever Mosquito (Aedes aegypti, AEDSAE). To be noted: for YFM rating: Table ABC / ABC-DP rating. The gist of the method:
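Rating-scale grades reflect larval mortality scored per well after 3 days at room temperature under non-evaporative lids. Larvae (~1 day old, hatched overnight in liver-powder water) were added to six daughter plates per compound, prepared from a 4000 ppm DMSO stock diluted in 90:10 water/acetone.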

Setting [4] is: Beet Armyworm, rating class, read-out: BAW.
The mark [5] stands for this setting: Cabbage Looper, rating class, read-out: CL.
Where [6] appears, read: Yellow Fever Mosquito, rating class.
The mark [7] stands for this setting: Beet Armyworm, Table ABC / ABC-DP rating, read-out: BAW rating.
The mark [8] stands for this setting: Cabbage Looper, Table ABC / ABC-DP rating, read-out: CL rating.
The mark [9] stands for this setting: Table ABC: Biological Results, species BAW, read-out: BAW.
Where [10] appears, read: Table ABC: Biological Results, species CL, read-out: CL.
The mark [11] stands for this setting: Table ABC: Biological Results, species YFM.

Like-named read-outs stand apart in the source and are kept apart here.

With `CCCC(OCC)C(=O)Nc1c(F)ccc(NC(=O)c2cc(NC(=O)[C@H]3[C@H](c4ccc(F)c(C(F)(F)F)c4)C3(Cl)Cl)ccc2Cl)c1F` (stereo partly drawn) [F1759, 2-Chloro-5-((1R,3R)-2,2-dichloro-3-(4-fluoro-3-(trifluoromethyl)phenyl)cyclopropane-1-carboxamido)-N-(3-(2-ethoxypentanamido)-2,4-difluorophenyl)benzamide], the pest or weed control at 50 µg/cm2 in experiment [1] (setting [4]) and in experiment [2] (setting [5]) was 50 to 100% each time. Further, the YFM result in experiment [3] (setting [6]) is given as “A (80–100)”.

Take `CN(NCCC(F)(F)F)C(=O)c1cc(NC(=O)[C@H]2[C@H](c3cc(Cl)cc(Cl)c3)C2(Cl)Cl)ccc1Cl` (relative stereo) [F2552, trans-2,2-Dichloro-N-(4-chloro-3-(1-methyl-2-(3,3,3-trifluoropropyl)hydrazine-1-carbonyl)phenyl)-3-(3,5-dichlorophenyl)cyclopropane-1-carboxamide]: the pest or weed control at 50 µg/cm2 in experiment [1] (setting [7]) and in experiment [2] (setting [8]) was 50 to 100% in each case. Moreover, the YFM rating result in experiment [3] (Yellow Fever Mosquito) is listed as “A (80–100)”.

As to `CCC(F)(F)CNC(=O)c1cc(NC(=O)[C@H]2[C@H](c3cc(Cl)cc(Cl)c3)C2(Cl)Cl)cc(F)c1Cl` (relative stereo) [F2088, trans-2-Chloro-5-(2,2-dichloro-3-(3,5-dichlorophenyl)cyclopropane-1-carboxamido)-N-(2,2-difluorobutyl)-3-fluorobenzamide], the pest or weed control at 50 µg/cm2 in experiment [1] (setting [7]) and in experiment [2] (setting [8]) was 50 to 100% in each case. In experiment [3] (Yellow Fever Mosquito), the YFM rating entry is on record as “B (More than 0 – Less than 80)”.

For `O=C(Nc1ccc(F)c(NC(=O)C(F)(F)Br)c1F)c1cc(NC(=O)[C@H]2[C@H](c3ccc(F)c(C(F)(F)F)c3)C2(Cl)Cl)ccc1Cl` [F1276, N-(3-(2-Bromo-2,2-difluoroacetamido)-2,4-difluorophenyl)-2-chloro-5-((1R,3R)-2,2-dichloro-3-(4-fluoro-3-(trifluoromethyl)phenyl)cyclopropane-1-carboxamido)benzamide], the pest or weed control at 50 µg/cm2 in experiment [1] (setting [9]) and in experiment [2] (setting [10]) was 50 to 100% in each case. Moreover, in experiment [3] (setting [11]), the YFM result is given as “A (80–100)”.

With `O=C(Nc1ccc(F)cc1F)c1cc(NC(=O)[C@H]2[C@@H](c3cc(F)cc(Br)c3F)C2(Cl)Cl)ccc1Cl` (relative stereo) [F1094, cis-5-(3-(3-Bromo-2,5-difluorophenyl)-2,2-dichlorocyclopropane-1-carboxamido)-2-chloro-N-(2,4-difluorophenyl)benzamide], the pest or weed control at 50 µg/cm2 in experiment [1] (setting [9]) and in experiment [2] (setting [10]) was 50 to 100% throughout. The YFM result in experiment [3] (setting [11]) is given as “A (80–100)”.

As to `Cc1cc(NCc2ccc(Cl)cc2)ccc1NC(=O)c1cc(NC(=O)[C@H]2[C@H](c3cc(Cl)cc(Cl)c3)C2(Cl)Cl)ccc1Cl` (relative stereo) [F1010, trans-2-chloro-N-(4-((4-chlorobenzyl)amino)-2-methylphenyl)-5-(2,2-dichloro-3-(3,5-dichlorophenyl)cyclopropane-1-carboxamido)benzamide], the pest or weed control at 50 µg/cm2 in experiment [1] (setting [9]) and in experiment [2] (setting [10]) was 50 to 100% each time. For the same compound, the YFM result in experiment [3] (setting [11]) is listed as “A (80–100)”.

For `CC(=O)Nc1c(F)ccc(NC(=O)c2cc(NC(=O)[C@H]3[C@H](c4cc(Cl)cc(Cl)c4)C3(Cl)Cl)ccc2Cl)c1Cl` (relative stereo) [F1160, trans-N-(3-acetamido-2-chloro-4-fluorophenyl)-2-chloro-5-(2,2-dichloro-3-(3,5-dichlorophenyl)cyclopropane-1-carboxamido)benzamide], the pest or weed control at 50 µg/cm2 in experiment [1] (setting [9]) and in experiment [2] (setting [10]) was 50 to 100% in each case. Moreover, the YFM entry in experiment [3] (setting [11]) is “A (80–100)”.

`O=C(Nc1c(F)ccc(NC(=O)C(F)F)c1F)c1cc(NC(=O)[C@H]2[C@H](c3ccc(F)c(C(F)(F)F)c3)C2(Cl)Cl)ccc1Cl` [F1394, 2-Chloro-5-((1R,3R)-2,2-dichloro-3-(4-fluoro-3-(trifluoromethyl)phenyl)cyclopropane-1-carboxamido)-N-(3-(2,2-difluoroacetamido)-2,6-difluorophenyl)benzamide]: the pest or weed control at 50 µg/cm2 in experiment [1] (setting [4]) and in experiment [2] (setting [5]) was 50 to 100% in each case. Further, the YFM result in experiment [3] (setting [6]) is listed as “A (80–100)”.

On to `O=C(Nc1ccc(F)c(NC(=O)C2CC(F)(F)C2(F)F)c1F)c1cc(NC(=O)[C@H]2[C@H](c3ccc(F)c(C(F)(F)F)c3)C2(Cl)Cl)ccc1Cl` (stereo partly drawn) [F1481, 2-Chloro-5-((1R,3R)-2,2-dichloro-3-(4-fluoro-3-(trifluoromethyl)phenyl)cyclopropane-1-carboxamido)-N-(2,4-difluoro-3-(2,2,3,3-tetrafluorocyclobutane-1-carboxamido)phenyl)benzamide], for which the pest or weed control at 50 µg/cm2 in experiment [1] (setting [4]) and in experiment [2] (setting [5]) was 50 to 100% each time. In addition, the YFM entry in experiment [3] (setting [6]) was “A (80–100)”.

In the case of `Cc1cc(NC(=O)[C@H]2[C@H](c3ccc(F)c(Cl)c3)C2(Cl)Cl)cc(C(=O)Nc2ccc(F)cc2F)c1F` (relative stereo) [F1137, trans-5-(2,2-Dichloro-3-(3-chloro-4-fluorophenyl)cyclopropane-1-carboxamido)-N-(2,4-difluorophenyl)-2-fluoro-3-methylbenzamide], the pest or weed control at 50 µg/cm2 in experiment [1] (setting [9]) and in experiment [2] (setting [10]) was 50 to 100% in each case. The YFM result in experiment [3] (setting [11]) was “A (80–100)”.

For the compound `Cc1cc(NCCO)ccc1NC(=O)c1cc(NC(=O)[C@H]2[C@H](c3cc(Cl)cc(Cl)c3)C2(Cl)Cl)ccc1Cl` (relative stereo) [F1130, trans-2-chloro-5-(2,2-dichloro-3-(3,5-dichlorophenyl)cyclopropane-1-carboxamido)-N-(4-((2-hydroxyethyl)amino)-2-methylphenyl)benzamide], the pest or weed control at 50 µg/cm2 in experiment [1] (setting [9]) and in experiment [2] (setting [10]) was 50 to 100% each time. For the same compound, the YFM result in experiment [3] (setting [11]) is recorded as “A (80–100)”.

In the case of `Cc1cc(NCc2ccc(OC(F)(F)F)cc2)ccc1NC(=O)c1cc(NC(=O)[C@H]2[C@H](c3cc(Cl)cc(Cl)c3)C2(Cl)Cl)ccc1Cl` (relative stereo) [F1117, trans-2-Chloro-5-(2,2-dichloro-3-(3,5-dichlorophenyl)cyclopropane-1-carboxamido)-N-(2-methyl-4-((4-(trifluoromethoxy)benzyl)amino)phenyl)benzamide], the pest or weed control at 50 µg/cm2 in experiment [1] (setting [9]) and in experiment [2] (setting [10]) was 50 to 100% in each case. Besides, in experiment [3] (setting [11]), the YFM entry is reported as “A (80–100)”.

For `O=C(CC(F)(F)F)Nc1c(F)ccc(NC(=O)c2cc(NC(=O)[C@H]3[C@H](c4cc(Cl)c(Cl)c(Cl)c4)C3(Cl)Cl)ccc2Cl)c1F` [F1651, 2-Chloro-5-((1R,3R)-2,2-dichloro-3-(3,4,5-trichlorophenyl)cyclopropane-1-carboxamido)-N-(2,4-difluoro-3-(3,3,3-trifluoropropanamido)phenyl)benzamide], the pest or weed control at 50 µg/cm2 in experiment [1] (setting [4]) and in experiment [2] (setting [5]) was 50 to 100% throughout. Also, the YFM result in experiment [3] (setting [6]) is on record as “A (80–100)”.

Take `C=C(F)c1cc(NC(=O)c2cc(NC(=O)[C@H]3[C@H](c4cc(Cl)cc(Cl)c4)C3(Cl)Cl)ccc2Cl)cc(F)c1F` (relative stereo) [F1323, trans-2-Chloro-5-(2,2-dichloro-3-(3,5-dichlorophenyl)cyclopropane-1-carboxamido)-N-(3,4-difluoro-5-(1-fluorovinyl)phenyl)benzamide]: the pest or weed control at 50 µg/cm2 in experiment [1] (setting [9]) and in experiment [2] (setting [10]) was 50 to 100% in each case. In addition, the YFM entry in experiment [3] (setting [11]) is on record as “A (80–100)”.

For the origin of these results see patent publication US20250228239A1, “MOLECULES HAVING PESTICIDAL UTILITY, AND INTERMEDIATES, COMPOSITIONS, AND PROCESSES, RELATED THERETO” (priority 2024, published 2025).
